The record followed here is PMC8596843, “Platinum Cyclooctadiene Complexes with Activity against Gram‐positive Bacteria” (Chemmedchem, 2021).

Data set [1] deals with HEK-293 ATCC CRL-1573 human embryonic kidney cells. It counts as cell-based. The procedure:
As part of the CO‐ADD screening, all compounds that show any activity against a microbial strain are evaluated for their cytotoxicity against human embryonic kidney cells (HEK‐293) and for haemolysis against human red blood cells. None of the compounds tested for cytotoxicity (Pt1‐9 and Pd1) caused any significant cell death up to concentrations of 100 μM. […] We have also observed higher IC50 values for the methylated complexes Pt3 and Pt4 against HeLa cells in previous work.[16] […]
inhibitors as positive control.
Tamoxifen (Sigma T5648) was used
as internal control on each plate.
in a Neubauer haemocytometer. […]

For data set [2], the system named is Staphylococcus aureus VRS 1, VRSA (VanA). Description: Antibacterial MIC assay, Gram-positive panel. In kind it is cell-based. The settings on record: Staphylococcus aureus, VRSA. An excerpt: (§1) Bis(dimethyl-η4)-((1Z,1'E,5Z,5'E)-(1,1'-bi(cyclooctadiene))diplatinum(II) (Pt14) Smiles: C1C=CCCC(=CC1)C1=CCCC=CCC1.C[Pt]C.C[Pt]C
(§2) InChIKey: PHIWIZAHOBWKFJ-HPCBIOCFSA-N
(§3) Link to selected data that was repeated to approve the identity of the compounds: https://dx.doi.org/10.14272/PHIWIZAHOBWKFJ-HPCBIOCFSA-N.1
(§4) ATCC strains were sourced from the American Type Culture Collection and NRS strains from NARSA (Network on Antimicrobial Resistance in Staphylococcus aureus) via BEI Resources (www.beiresources.org), with clinical MSSA and MRSA isolates from Prof Graeme Nimmo, Queensland […]
(§5) Health Central Pathology. […]
(§6) Antibacterial minimum inhibitory concentration (MIC) assay
(§7) Compound Assay Plate Preparation: Compounds were dissolved in DMSO at 10mM (CO-ADD screening) or 4 mM (follow up screening) and were plated in a 2-fold dose response from 20 to 0.156 µM or 200 to 0.006 µM respectively, with a maximum of 0.5% or 1% DMSO, final in the assay […]
(§8) plated in a 2-fold dose response from 200 to 0.006 µM, with a maximum of 1 % DMSO, final in the assay concentration. (in-house screening)
(§9) For all the bacterial assays, each strain was cultured in Cation-adjusted Mueller Hinton broth (CAMHB; Bacto Laboratories 212322) at 37 °C overnight. A sample of each culture was then diluted 40-fold in fresh CAMHB and incubated at 37 °C for 1.5–3 h. The resultant mid-log phase cultures were diluted with CAMHB (CFU mL−1 measured by OD600), then added to each well of the compound-containing plates (384-well non-binding surface (NBS) plates; Corning CLS3640), giving a cell density of 5 × 10^5 CFU mL−1 and a total volume of 50 μL. Plates were covered and incubated at 37 °C for 18 h without shaking. Inhibition of bacterial growth was determined measuring absorbance at 600 nm (OD600), using media only as negative control and bacteria without inhibitors as positive control. MIC values were determined as the lowest concentration at which the growth was inhibited at ≥80%. Colistin sulfate (Sigma C4461) and vancomycin HCl (Sigma 861987) were used as internal controls on each plate for Gram-negative and Gram-positive bacteria, respectively. […]

The subject of data set [3] is Staphylococcus aureus ATCC 25923, MSSA. Description: Antibacterial MIC assay, Gram-positive panel. In kind it is cell-based. The conditions noted are these: Staphylococcus aureus.
Source text: as §1, §2, §3, §4, §5, §6, §7, §8, §9

Data set [4] has as its system Staphylococcus epidermidis NRS 60, VISE. Description: Antibacterial MIC assay, Gram-positive panel. In kind it is cell-based. The conditions noted are these: Staphylococcus epidermidis. How it is done:
(§10) Smiles: C1C=CCCC(=CC1)C1=CCCC=CCC1.C[Pt]C.C[Pt]C […]
as §4, §5, §6, §7, §8, §9

Data set [5] has as its system Staphylococcus epidermidis ATCC 14990, type strain. Briefly: Antibacterial MIC assay, Gram-positive panel. In kind it is cell-based. The conditions noted are these: Staphylococcus epidermidis. The procedure: as §10, §4, §5, §6, §7, §8, §9
Data set [6] deals with Enterococcus faecium ATCC 35667, type strain. Briefly: Antibacterial MIC assay, Gram-positive panel. It counts as cell-based. The conditions noted are these: Enterococcus faecium. How it is done: as §10, §4, §5, §6, §7, §8, §9
Data set [7] concerns Bacillus subtilis ATCC 6051, type strain. Description: Antibacterial MIC assay, Gram-positive panel. The conditions noted are these: Bacillus subtilis. In kind it is cell-based. The procedure:
as §10, §4, §5, §6, §7, §8, §9

Data set [8] relates to Staphylococcus aureus NRS 17, GISA. Description: Antibacterial MIC assay, Gram-positive panel. It counts as cell-based. The conditions noted are these: Staphylococcus aureus. How it is done:
as §10, §4, §5, §6, §7, §8, §9

Data set [9] concerns Enterococcus faecium Clinical Isolate, VRE (VanA). Description: Antibacterial MIC assay, Gram-positive panel. The settings on record: Enterococcus faecium, VRE. In kind it is cell-based. How it is done: as §10, §4, §5, §6, §7, §8, §9
The subject of data set [10] is Enterococcus faecium ATCC 51559, MDR, VRE (VanA). Description: Antibacterial MIC assay, Gram-positive panel. In kind it is cell-based. The conditions noted are these: Enterococcus faecium. How it is done: as §10, §4, §5, §6, §7, §8, §9
Data set [11] relates to Enterococcus faecalis Clinical Isolate, VRE (VanB). Briefly: Antibacterial MIC assay, Gram-positive panel. In kind it is cell-based. The conditions noted are these: Enterococcus faecalis, VRE. The procedure: as §10, §4, §5, §6, §7, §8, §9
The subject of data set [12] is Enterococcus faecalis ATCC 29212, control strain. Briefly: Antibacterial MIC assay, Gram-positive panel. The settings on record: Enterococcus faecalis. In kind it is cell-based. How it is done:
as §10, §4, §5, §6, §7, §8, §9

A further data set deals with S. aureus NRS 17 GISA. Description: MIC in the presence of human serum (serum reversal). In kind it is cell-based, Staphylococcus aureus. The settings on record: Staphylococcus aureus, NRS17, read-out: MIC in the presence of human serum.
Source text: (§11) To obtain some initial insight into the apparent disparity between in vitro and in vivo results, we repeated the MIC experiments against four selected Gram‐positive strains in the presence of 10 % or 50 % human serum (Table S3). Pt1 and Pt2 maintained some antibacterial activity against B. subtilis in the presence of 10 % serum, but a complete loss of activity was observed against MRSA and GISA (50 % serum), and VRE (10 % serum). […] Systemic administration is therefore unlikely to be a suitable administration route for this class of compounds unless an alternative formulation that can prevent serum binding (e. g. by lipid or nanoparticle encapsulation) can be found. […] Further in vivo studies should therefore focus on more suitable disease models. […]
as §6
(§12) concentration. (in-house screening)
(§13) Bacto Laboratories 212322) at 37 °C overnight.
(§14) The resultant mid-log phase cultures were diluted
(§15) Gram-negative and Gram-positive bacteria, respectively.
(§16) final concentration range of 0.8 – 100 µM.
(§17) inhibitors as positive control. […]

Data set [13] has as its system S. aureus ATCC 43300 MRSA. The data set is described as above. It counts as cell-based, Staphylococcus aureus. The conditions noted are these: Staphylococcus aureus, read-out: MIC in the presence of human serum.
Source text: as §11, §6, §12, §13, §14, §15, §16, §17

The subject of data set [14] is E. faecium ATCC 51559 MDR, VRE. Described as above. It counts as cell-based, Enterococcus faecium. The conditions noted are these: Enterococcus faecium, read-out: MIC in the presence of human serum.
Source text: as §11, §6, §12, §13, §14, §15, §16, §17

In data set [15] the test system is B. subtilis ATCC 6051 type strain. The description is as above. The conditions noted are these: Bacillus subtilis, ATCC6051, read-out: MIC in the presence of human serum. In kind it is cell-based, Bacillus subtilis.
Source text: as §11, §6, §12, §13, §14, §15, §16, §17

The subject of data set [16] is Staphylococcus aureus ATCC 43300 (MRSA). Description: microbe, parasite or virus in culture. In kind it is cell-based. The conditions noted are these: Staphylococcus aureus. The procedure: All compounds submitted to CO‐ADD are initially screened against five bacterial strains (Staphylococcus aureus (MRSA), E. coli, Klebsiella pneumoniae, Pseudomonas aeruginosa, Acinetobacter baumannii) and two fungal strains (Candida albicans, Cryptococcus neoformans) at a single concentration (32 μg/mL or 20 μM) performed as a high‐throughput primary screening.[[11], [17a]] Any compounds that show significant growth inhibition against any of the tested strains at this step are then evaluated in a dose‐response assay against these same strains. […]
as §10, §4, §5, §6, §7, §8, §9

In brackets after ≈: the same amount, converted by molar mass. Where two headings read alike, the source gives them in different places.

On to `CC/C(=C(\c1ccccc1)c1ccc(OCCN(C)C)cc1)c1ccccc1` [Tamoxifen, reference compound], for which the “HEK‐293 CC50” value in data set [1] is listed as 34.75–30.55.

For `CN[C@H](CC(C)C)C(=O)N[C@H]1C(=O)N[C@@H](CC(N)=O)C(=O)N[C@H]2C(=O)N[C@H]3C(=O)N[C@H](C(=O)N[C@H](C(=O)O)c4cc(O)cc(O)c4-c4cc3ccc4O)[C@H](O)c3ccc(c(Cl)c3)Oc3cc2cc(c3O[C@@H]2O[C@H](CO)[C@@H](O)[C@H](O)[C@H]2O[C@H]2C[C@](C)(N)[C@H](O)[C@H](C)O2)Oc2ccc(cc2Cl)[C@H]1O` [Vancomycin, reference compound], the MIC in data set [2] (Table 2 panel, n=4) is above 44.2 µg/mL; in [2] (Table S1, vancomycin control), above 64 µg/mL; in data set [3] (Table 2 panel, n=4), 0.69 µg/mL (≈ 0.476 µM); in [3] (Table S1, vancomycin control), 1 µg/mL (≈ 0.69 µM); in [4] (NRS60, Table 2 panel, n=4) it was 2.76 µg/mL (≈ 1.9 µM); in data set [4] (NRS60, Table S1, vancomycin control), 4 µg/mL (≈ 2.76 µM). Also, the MIC in [5] (ATCC14990, Table 2 panel, n=4) is 0.69 to 1.38 µg/mL (≈ 0.476 to 0.952 µM); in data set [5] (ATCC14990, Table S1, vancomycin control), 1 to 2 µg/mL (≈ 0.69 to 1.38 µM); in data set [6] (ATCC35667, Table 2 panel, n=4), 0.35 µg/mL (≈ 0.242 µM); in data set [6] (ATCC35667, Table S1, vancomycin control), 0.5 µg/mL (≈ 0.345 µM); in [7] (ATCC6051, Table 2 panel, n=2) it was 0.35 µg/mL (≈ 0.242 µM); in data set [7] (ATCC6051, Table S1, vancomycin control), 0.5 µg/mL (≈ 0.345 µM). Moreover, the MIC was 5.52 µg/mL (≈ 3.81 µM) in data set [8] (NRS17, Table 2 panel, n=2); 8 µg/mL (≈ 5.52 µM) in [8] (NRS17, Table S1, vancomycin control); above 44.2 µg/mL in data set [9] (Table 2 panel, n=4); above 64 µg/mL in data set [9] (Table S1, vancomycin control); above 44.2 µg/mL in [10] (Table 2 panel, n=2); above 64 µg/mL in data set [10] (Table S1, vancomycin control). For the same compound, the MIC in [11] (Table 2 panel, n=4) is above 44.2 µg/mL; in data set [11] (Table S1, vancomycin control), 64 µg/mL (≈ 44.2 µM); in data set [12] (ATCC29212, Table 2 panel, n=4), 1.38 to 2.76 µg/mL (≈ 0.952 to 1.9 µM); in data set [12] (ATCC29212, Table S1, vancomycin control) it was 2 to 4 µg/mL (≈ 1.38 to 2.76 µM); in the data set on S. aureus NRS 17 GISA it was 8 µg/mL; in data set [13], 0.5 to 1 µg/mL. The MIC was above 64 µg/mL in [14]; 0.5 µg/mL in data set [15]; 0.35 to 0.69 µg/mL (≈ 0.242 to 0.476 µM) in data set [16] (Table 2 panel, n=2); 0.5 to 1 µg/mL (≈ 0.345 to 0.69 µM) in data set [16] (Table S1, vancomycin control); 1 µg/mL (≈ 0.69 µM) in [16] (read-out: MIC Sa, CO‐ADD screening, control antibiotic).
